Where a name gives a salt, the structure may show the parent alone. Read-outs that look alike come from different tables or passages of the source.
How the values were obtained:
[1] = test system: GR activation in 293/PRLR/GRE-Luc cells (HEK293/9xUAS-Luc2P/pBind-GR/PRLR-HA high cells); experiment: GR co-activator luciferase reporter cell based assay in 293/PRLR/GRE-Luc cells; parameters: species or system human; conditions: for Emax / EC50: Homo sapiens; for Emax: HEK293, read-out: Activation (fold activation relative to Budesonide) in HEK293/9xUAS-Luc2P/pBind-GR/PRLR-HA high cells; for EC50: HEK293, read-out: HEK293/9xUAS-Luc2P/pBind-GR/PRLR-HA high cells EC50
Excerpt: Bioassays described herein were used to assess the efficacy of free steroids and anti-PRLR-ncADCs. In one example, the bioassay assessed the activity of steroids, after internalization of a site-specific anti-PRLR-GC steroid ADC into cells, to bind to pBIND-GR and subsequent luciferase reporter activation. […] Then such stable cell line was further transfected with a chimeric receptor consisting of a GR ligand binding domain fused to the yeast Gal4 DNA binding domain (pBind-GR, Promega Cat #E1581), and a Gal4 upstream activator sequence (9×Gal4UAS-Luc2P) that drives luciferase gene expression.
(§1) For this assay, 20,000 cells were seeded in 96-well plates in media containing DMEM supplemented with 10% FBS and pencillin/streptomycin (complete media) and grown overnight at 37° C. in 5% CO2. […] Luciferase activity was determined by addition of OneGlo™ reagent (Promega, Cat #E6130) and relative light units (RLUs) were measured on a Victor luminometer (Perkin Elmer). The EC50 values were determined from a four-parameter logistic equation over a 10 point response curve using GraphPad Prism.
as §1, with “One-Glo™” for “OneGlo™”, “10-point” for “10 point”, “Prism. […] Minimal activation in this assay is defined as less than 10% of the maximal activation measured with the free payload.” for “Prism.”

[2] = target: Glucocorticoid Receptor (GR) (Homo sapiens (Human), UniProt P04150); experiment: LanthaScreen TR-FRET GR Competitive Binding Assay (cell free)
Chain of Glucocorticoid Receptor (GR) (P04150 524-758): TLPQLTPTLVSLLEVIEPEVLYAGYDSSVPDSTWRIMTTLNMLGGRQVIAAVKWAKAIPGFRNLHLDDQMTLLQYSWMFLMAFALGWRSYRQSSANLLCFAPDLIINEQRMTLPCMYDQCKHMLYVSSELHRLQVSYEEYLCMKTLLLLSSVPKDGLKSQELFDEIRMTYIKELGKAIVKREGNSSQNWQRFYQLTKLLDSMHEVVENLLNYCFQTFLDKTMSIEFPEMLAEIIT

For `CCC[C@H]1O[C@@H]2C[C@H]3[C@@H]4CCC5=CC(=O)C=C[C@]5(C)[C@H]4[C@@H](O)C[C@]3(C)[C@]2(C(=O)COc2ccc(N)cc2)O1` [11-5 S, (1S,2S,4R,8S,9S,11S,12S,13R)-8-[2-(4-Aminophenoxy)acetyl]-11-hydroxy-9,13-dimethyl-6-propyl-5,7-dioxapentacyclo[10.8.0.0^2,90.0^4,80.0^13,18]icosa-14,17-dien-16-one], the Emax ([1]; 72 hours of incubation) was over 75%, the EC50 ([1]; 72 hours of incubation) was under 10 nM and the IC50 [2] was 10 to 100 nM.

Compound `CCC[C@H]1O[C@@H]2C[C@H]3[C@@H]4CCC5=CC(=O)C=C[C@]5(C)[C@H]4[C@@H](O)C[C@]3(C)[C@]2(C(=O)COc2ccc(N)c(F)c2)O1` [11-6 S, (1S,2S,4R,6S,8S,9S,11S,12S,13R)-8-[2-(4-Amino-3-fluorophenoxy)acetyl]-11-hydroxyl-9,13-dimethyl-6-propyl-5,7-dioxapentacyclo[10.8.0.0^2,90.0^4,80.0^13,18]icosa-14,17-dien-16-one] has an Emax ([1]; 72 hours of incubation) of over 75%, an EC50 ([1]; 72 hours of incubation) of under 10 nM and an IC50 [2] of 10 to 100 nM.

Work on `CCC[C@@H]1O[C@@H]2C[C@H]3[C@@H]4CCC5=CC(=O)C=C[C@]5(C)[C@H]4[C@@H](O)C[C@]3(C)[C@]2(C(=O)COc2ccc(N)cc2F)O1` [11-7 R, (1S,2S,4R,8S,9S,11S,12S,13R)-8-[2-(4-Amino-3-fluorophenoxy)acetyl]-11-hydroxyl-9,13-dimethyl-6-propyl-5,7-dioxapentacyclo[10.8.0.0^2,90.0^4,80.0^13,18]icosa-14,17-dien-16-one] yielded an Emax ([1]; 72 hours of incubation) of over 75%, an EC50 ([1]; 72 hours of incubation) of 10 to 100 nM and an IC50 [2] of 10 to 100 nM.

For `CCC[C@@H]1O[C@@H]2C[C@H]3[C@@H]4CCC5=CC(=O)C=C[C@]5(C)[C@H]4[C@@H](O)C[C@]3(C)[C@]2(C(=O)COc2ccc(NC)cc2)O1` [11-8 R, (1S,2S,4R,6R,8S,9S,11S,12S,13R)-11-Hydroxyl-9,13-dimethyl-8-{2-[4-(methylamino)phenoxy]acetyl}-6-propyl-5,7-dioxapentacyclo-[10.8.0.0^2,90.0^4,80.0^13,18]icosa-, 14,17-dien-16-one], the Emax ([1]; 72 hours of incubation) was over 75%, the EC50 ([1]; 72 hours of incubation) was under 10 nM and the IC50 [2] was 10 to 100 nM.

For `CCC[C@@H]1O[C@@H]2C[C@H]3[C@@H]4CCC5=CC(=O)C=C[C@]5(C)[C@H]4[C@@H](O)C[C@]3(C)[C@]2(C(=O)COc2ccc(F)cc2)O1` [11-10 R/S, (1S,2S,4R,6R,8S,9S,11S,12S,13R)-8-[2-(4-Fluorophenoxy)acetyl]-11-hydroxy-9,13-dimethyl-6-propyl-5,7-dioxapentacyclo[10.8.0.0^2,90.0^4,80.0^13,18]icosa-14,17-dien-16-one], the Emax ([1]; 72 hours of incubation) was under 20%, the EC50 ([1]; 72 hours of incubation) was over 100 nM and the IC50 [2] was under 10 nM.

`CCC[C@@H]1O[C@@H]2C[C@H]3[C@@H]4CCC5=CC(=O)C=C[C@]5(C)[C@H]4[C@@H](O)C[C@]3(C)[C@]2(C(=O)COc2ccc(NC(C)=O)cc2)O1` [11-11 R/S, N-(4-{2-[(1S,2S,4R,6R,8S,9S,11S,12S,13R)-11-Hydroxy-9,13-dimethyl-16-oxo-6-propyl-5,7-dioxapentacyclo[10.8.0.0^2,90.0^4,80.0^13,18]icosa-14,17-dien-8-yl]-2-oxoethoxy}phenyl)acetamide] showed an Emax ([1]; 72 hours of incubation) of under 20%, an EC50 ([1]; 72 hours of incubation) of over 100 nM and an IC50 [2] of under 10 nM.

For `CCCC1O[C@@H]2C[C@H]3[C@@H]4C[C@H](F)C5=CC(=O)C=C[C@]5(C)[C@@]4(F)[C@@H](O)C[C@]3(C)[C@]2(C(=O)COc2ccc(N)cc2)O1` (stereo partly drawn) [11-12 R/S, (1S,2S,4R,8S,9S,11S,12R,13S,19S)-8-[2-(4-Aminophenoxy)acetyl]-12,19-difluoro-11-hydroxy-9,13-dimethyl-6-propyl-5,7-dioxapentacyclo[10.8.0.0^2,90.0^4,80.0^13,18]icosa-14,17-dien-16-one], the Emax ([1]; 72 hours of incubation) was over 75%, the EC50 ([1]; 72 hours of incubation) was under 10 nM and the IC50 [2] was 10 to 100 nM.

Compound `CCCC1O[C@@H]2C[C@H]3[C@@H]4C[C@H](F)C5=CC(=O)C=C[C@]5(C)[C@@]4(F)[C@@H](O)C[C@]3(C)[C@]2(C(=O)COc2cccc(N)c2)O1` (stereo partly drawn) [11-13 R, (1S,2S,4R,6R,8S,9S,11S,12R,13S,19S)-8-[2-(3-Aminophenoxy)acetyl]-12,19-difluoro-11-hydroxy-9,13-dimethyl-6-propyl-5,7-dioxapentacyclo[10.8.0.0^2,90.0^4,80.0^13,18]icosa-14,17-dien-16-one] has an Emax ([1]; 72 hours of incubation) of over 75%, an EC50 ([1]; 72 hours of incubation) of under 10 nM and an IC50 [2] of under 10 nM.

Work on `CCCC1O[C@@H]2C[C@H]3[C@@H]4C[C@H](F)C5=CC(=O)C=C[C@]5(C)[C@@]4(F)[C@@H](O)C[C@]3(C)[C@]2(C(=O)COc2ccc(N)c(F)c2)O1` (stereo partly drawn) [11-14 R/S, (1S,2S,4R,8S,9S,11S,12R,13S,19S)-8-[2-(4-Amino-3-fluorophenoxy)acetyl]-12,19-difluoro-11-hydroxy-9,13-dimethyl-6-propyl-5,7-dioxapentacyclo[10.8.0.0^2,9.0^4,80.0^13,18]icosa-14,17-dien-16-one] yielded an Emax ([1]; 72 hours of incubation) of over 75%, an EC50 ([1]; 72 hours of incubation) of under 10 nM and an IC50 [2] of under 10 nM.

In the case of `CCCC1O[C@@H]2C[C@H]3[C@@H]4C[C@H](F)C5=CC(=O)C=C[C@]5(C)[C@@]4(F)[C@@H](O)C[C@]3(C)[C@]2(C(=O)COc2ccc(CN)cc2)O1` (stereo partly drawn) [11-15 R/S, (1S,2S,4R,8S,9S,11S,12R,13S,19S)-8-{2-[4-(Aminomethyl)phenoxy]acetyl}-12,19-difluoro-11-hydroxy-9,13-dimethyl-6-propyl-5,7-dioxapentacyclo[10.8.0.0^2,90.0^4,80.0^13,18]icosa-14,17-dien-16-one], the Emax ([1]; 72 hours of incubation) is reported as 20 to 75%, the EC50 ([1]; 72 hours of incubation) is reported as 10 to 100 nM and the IC50 [2] is reported as under 10 nM.

`CCCC1O[C@@H]2C[C@H]3[C@@H]4C[C@H](F)C5=CC(=O)C=C[C@]5(C)[C@@]4(F)[C@@H](O)C[C@]3(C)[C@]2(C(=O)COc2cccc(N)n2)O1` (stereo partly drawn) [11-17 R/S, (1S,2S,4R,8S,9S,11S,12R,13S,19S)-8-{2-[(6-Aminopyridin-2-yl)oxy]acetyl}-12,19-difluoro-11-hydroxy-9,13-dimethyl-6-propyl-5,7-dioxapentacyclo[10.8.0.0^2,90.0^4,80.0^13,18]icosa-14,17-dien-16-one] was tested, and the Emax ([1]; 72 hours of incubation) was over 75%, the EC50 ([1]; 72 hours of incubation) was 10 to 100 nM and the IC50 [2] was under 10 nM.

Compound `CCCC1O[C@@H]2C[C@H]3[C@@H]4C[C@H](F)C5=CC(=O)C=C[C@]5(C)[C@@]4(F)[C@@H](O)C[C@]3(C)[C@]2(C(=O)CN)O1` (stereo partly drawn) [11-19 R/S, (1S,2S,4R,6R,8S,9S,11S,12R,13S,19S)-8-(2-Aminoacetyl)-12,19-difluoro-11-hydroxy-9,13-dimethyl-6-propyl-5,7-dioxapentacyclo[10.8.0.0^2,90.0^4,80.0^13,18]icosa-14,17-dien-16-one; trifluoroacetic acid salt] has an Emax ([1]; 72 hours of incubation) of over 75%, an EC50 ([1]; 72 hours of incubation) of under 10 nM and an IC50 [2] of under 10 nM.

`CCCC1O[C@@H]2C[C@H]3[C@@H]4C[C@H](F)C5=CC(=O)C=C[C@]5(C)[C@@]4(F)[C@@H](O)C[C@]3(C)[C@]2(C(=O)CN(C)Cc2ccc(OC)cc2)O1` (stereo partly drawn) [11-20 R/S, (1S,2S,4R,8S,9S,11S,12R,13S,19S)-12,19-Difluoro-11-hydroxy-8-(2-{[(4-methoxyphenyl)methyl](methyl)amino}acetyl)-9,13-dimethyl-6-propyl-5,7-dioxapentacyclo[10.8.0.0^2,90.0^4,80.0^13,18]icosa-14,17-dien-16-one; trifluoroacetic acid] was tested, and the “Activation (fold activation relative to Budesonide) in HEK293/9xUAS-Luc2P/pBind-GR/PRLR-HA high cells” value ([1]; 72 hours of incubation) was “no activation”, the EC50 ([1]; 72 hours of incubation) was over 100 nM and the IC50 [2] was under 10 nM.

`CCCC1O[C@@H]2C[C@H]3[C@@H]4C[C@H](F)C5=CC(=O)C=C[C@]5(C)[C@@]4(F)[C@@H](O)C[C@]3(C)[C@]2(C(=O)CNC)O1` (stereo partly drawn) [11-21 R/S, (1S,2S,4R,8S,9S,11S,12R,13S,19S)-12,19-Difluoro-11-hydroxy-9,13-dimethyl-8-[2-(methylamino)acetyl]-6-propyl-5,7-dioxapentacyclo[10.8.0.0^2,90.0^4,80.0^13,18]icosa-14,17-dien-16-one; trifluoroacetic acid] gave an Emax ([1]; 72 hours of incubation) of 20 to 75%, an EC50 ([1]; 72 hours of incubation) of 10 to 100 nM and an IC50 [2] of under 10 nM.

`C[C@@H]1C[C@H]2[C@@H]3C[C@H](F)C4=CC(=O)C=C[C@]4(C)[C@@]3(F)[C@@H](O)C[C@]2(C)[C@@]1(O)C(=O)CN` [Compound 4d, (1R,2S,8S,10S,11S,13R,14R,15S,17S)-14-(2-Aminoacetyl)-1,8-difluoro-14,17-dihydroxy-2,13,15-trimethyltetracyclo 18.7.0.0^2,70.0^11,15]heptadeca-3,6-dien-5-one trifluoroacetate] was tested, and the EC50 [1] was 10 to 50 nM, the “HEK293/9xUAS-Luc2P/pBind-GR/PRLR-HA high cells activation relative to Budesonide” value ([1]; fold activation vs Budesonide) was “Partial” and the IC50 [2] was 10 to 50 nM.

Source: patent US11760775B2, “Steroids and protein-conjugates thereof” (Regeneron Pharmaceuticals, Inc., priority 2016, dated 2023)
